Test results from the supplement of paper PMC10307832.

Columns and labels:
Assay in all cases: relative viability (nuclei count vs DMSO), 5 days (fraction); higher = more cells survive
[1] = compound: CC1=C(C(=O)N2C=CSC2=N1)CCN3CCC(=C(C4=CC=CC=C4)C5=CC=C(C=C5)F)CC3 + CC(C)C[C@H](NC(=O)[C@H](Cc1ccccc1)NC(=O)c1cnccn1)B(O)O [Bortezomib] (partner 0.002 µM)
Procedure, shortened: (§1)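 Dosing by pin tool came one day after lung cancer cell lines were seeded in 1536-well plates, using either one drug or a fixed anchor-drug dose plus five library-drug doses (not always all listed) in √10 steps. After 5 days, nuclei were counted on 4× images. Relative viability is treated-well nuclei count divided by vehicle-well nuclei count, and values are medians of duplicate plates.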

[2] = compound: CC1=C(C(=O)N2C=CSC2=N1)CCN3CCC(=C(C4=CC=CC=C4)C5=CC=C(C=C5)F)CC3 + CCNC(=O)c1noc(-c2cc(C(C)C)c(O)cc2O)c1-c1ccc(CN2CCOCC2)cc1 [Luminespib] (partner 0.01 µM)
Procedure, shortened: as §1

[3] = compound: CC1=C(C(=O)N2C=CSC2=N1)CCN3CCC(=C(C4=CC=CC=C4)C5=CC=C(C=C5)F)CC3 + Cc1nc(Nc2ncc(C(=O)Nc3c(C)cccc3Cl)s2)cc(N2CCN(CCO)CC2)n1 [Dasatinib] (partner 0.075 µM)
Procedure, shortened: as §1

[4] = compound: CC1=C(C(=O)N2C=CSC2=N1)CCN3CCC(=C(C4=CC=CC=C4)C5=CC=C(C=C5)F)CC3 + CC(=O)c1c(C)c2cnc(Nc3ccc(N4CCNCC4)cn3)nc2n(C2CCCC2)c1=O [Palbociclib] (partner 0.5 µM)
Procedure, shortened: as §1

Cell Line	relative viability ([1]; first compound 0.08 µM)	relative viability ([1]; first compound 0.253 µM)	relative viability ([1]; first compound 0.8 µM)	relative viability ([1]; first compound 2.53 µM)	relative viability ([1]; first compound 8 µM)	relative viability ([2]; first compound 0.08 µM)	relative viability ([2]; first compound 0.253 µM)	relative viability ([2]; first compound 0.8 µM)	relative viability ([2]; first compound 2.53 µM)	relative viability ([2]; first compound 8 µM)	relative viability ([3]; first compound 0.08 µM)	relative viability ([3]; first compound 0.253 µM)	relative viability ([3]; first compound 0.8 µM)	relative viability ([3]; first compound 2.53 µM)	relative viability ([3]; first compound 8 µM)	relative viability ([4]; first compound 0.08 µM)	relative viability ([4]; first compound 0.253 µM)	relative viability ([4]; first compound 0.8 µM)	relative viability ([4]; first compound 2.53 µM)	relative viability ([4]; first compound 8 µM)
NCI-H2126	1.24	1.07	1.15	1.22	1.08	0.613	1.08	0.903	0.92	0.843	0.529	0.553	0.565	0.634	0.689	0.367	0.343	0.359	0.367	0.344
NCI-H650	–	0.696	0.877	0.817	0.599	0.573	0.827	0.951	0.877	0.683	0.474	0.504	0.388	0.546	0.46	0.322	0.348	0.322	0.32	0.334
201T	1.16	1.12	1.08	1.16	1.13	1.02	1.1	1.06	1.05	0.966	0.614	0.628	0.541	0.713	0.569	0.355	0.35	0.366	0.35	0.348
NCI-H1755	0.948	0.9	0.962	1.11	0.44	0.467	0.548	0.374	0.333	0.519	0.373	0.422	0.462	0.401	0.269	0.433	0.429	0.395	0.426	0.432
NCI-H1355	1.28	1.25	1.25	1.21	0.921	0.767	0.735	0.809	0.656	0.675	0.698	0.605	0.769	0.771	0.632	0.368	0.404	0.378	0.407	0.455
LCLC-103H	1.06	1.06	0.957	1.22	0.903	0.791	0.947	0.864	0.93	0.594	0.498	0.409	0.439	0.424	0.339	0.523	0.495	0.491	0.504	0.453
LOU-NH91	0.508	0.507	0.483	0.481	0.55	0.377	0.34	0.335	0.366	0.361	0.527	0.586	0.557	0.594	0.435	0.501	0.59	0.543	0.547	0.536
NCI-H2085	1.04	1.02	1.07	1.07	0.878	0.361	0.362	0.458	0.392	0.323	0.279	0.224	0.202	0.242	0.258	0.498	0.506	0.474	0.533	0.469
NCI-H661	0.764	0.776	0.88	0.871	0.697	1.03	0.984	0.928	1.04	0.598	0.862	0.847	0.75	0.913	0.628	0.402	0.393	0.391	0.417	0.429
NCI-H1792	0.742	0.614	0.976	0.77	0.438	0.354	0.444	0.585	0.379	0.349	0.72	0.574	0.817	0.837	0.352	0.353	0.663	0.649	0.564	0.271
EKVX	0.826	0.923	1.18	1.01	0.684	0.768	0.915	0.936	0.871	0.825	0.359	0.631	0.519	0.434	0.549	0.371	0.366	0.349	0.397	0.293
NCI-H1651	0.858	0.874	0.908	1.01	0.809	1.04	0.943	1.07	1.04	0.588	0.406	0.535	0.423	0.434	0.341	0.499	0.534	0.508	0.517	0.481
EPLC-272H	–	0.888	0.888	1.07	0.921	0.276	0.227	0.197	0.423	0.268	0.364	0.331	0.378	0.305	0.22	0.321	0.316	0.33	0.329	0.337
RERF-LC-KJ	1.02	1.02	1.16	1.18	1	1.14	1.12	1.22	1.24	0.813	0.706	0.892	0.879	0.688	0.492	1.18	1.04	0.97	0.991	0.637
NCI-H2347	–	1.18	0.957	1.04	0.895	0.367	0.361	0.353	0.334	0.547	0.263	0.31	0.311	0.48	0.283	0.358	0.428	0.434	0.442	0.461
NCI-H838	0.591	0.581	0.654	0.824	0.696	0.298	0.263	0.227	0.318	0.259	0.295	0.27	0.258	0.31	0.282	0.207	0.213	0.268	0.207	0.191
SW 1573	1.26	1.16	1.05	1.06	0.649	0.155	0.189	0.215	0.245	0.227	–	0.586	0.537	0.512	0.225	0.346	0.359	0.407	0.382	0.286
NCI-H2023	1.2	0.905	0.917	1.08	0.736	1.37	0.783	0.864	0.946	0.518	0.549	0.58	0.602	0.513	0.363	0.386	0.316	0.427	0.389	0.299
ChaGo-K-1	1.24	0.989	0.761	1.34	0.94	0.462	0.648	0.644	0.514	0.444	0.598	0.635	0.59	0.639	0.547	0.919	0.92	0.989	1.05	0.649
NCI-H1666	0.83	0.762	0.924	0.815	0.695	1.07	1.06	1.01	0.984	0.848	0.794	0.689	0.827	0.861	0.63	0.663	0.616	0.627	0.739	1.01
NCI-H441	–	0.447	0.464	0.468	0.215	0.314	0.477	0.369	0.361	0.339	0.526	0.678	0.679	0.541	0.507	0.219	0.196	0.2	0.208	0.234
H3255	0.909	0.831	0.704	0.873	0.732	0.796	0.892	0.786	0.961	0.709	0.349	0.357	0.307	0.339	0.375	0.273	0.317	0.313	0.311	0.303
NCI-H2087	0.836	0.795	1.02	1.02	0.589	0.132	0.208	0.22	0.185	0.142	0.91	0.87	0.882	0.752	0.637	0.279	0.237	0.236	0.227	0.238
BEN	0.76	0.757	0.864	0.828	0.534	0.439	0.33	0.308	0.308	0.35	0.318	0.319	0.294	0.362	0.284	0.455	0.498	0.479	0.558	0.498
NCI-H1975	0.35	0.329	0.368	0.434	0.362	0.202	0.303	0.167	0.292	0.181	0.355	0.395	0.345	0.386	0.304	0.601	0.493	0.598	0.795	0.348
NCI-H520	0.615	0.485	0.57	0.999	0.523	0.202	0.236	0.25	0.251	0.248	0.208	0.195	0.221	0.209	0.182	0.211	0.235	0.238	0.223	0.19
PC-3 [JPC-3]	0.811	0.895	0.969	1.01	0.642	0.802	0.656	0.66	0.678	0.585	0.901	0.702	1.01	1.14	0.844	0.58	–	0.576	0.596	0.579
